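Grown in 96-well plates, cells were treated for 48 hours with each compound at five concentrations. Insufficient inhibition: endpoint recorded as highest concentration tested. Here, GI50 denotes the concentration required for 50% inhibition of growth. The concentration for full growth arrest is given as TGI.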
Experiments:
Assay in all cases: DTP human tumour cell line panel, 48 h; in the data active = GI50 below about 0.43 µM; inactive = the rest
U251 CNS = test system: U251 CNS
MOLT-4 leukemia = test system: MOLT-4 leukemia
HCT-15 colon = test system: HCT-15 colon
COLO 205 colon = test system: COLO 205 colon
SW-620 colon = test system: SW-620 colon
OVCAR-4 ovarian = test system: OVCAR-4 ovarian
OVCAR-3 ovarian = test system: OVCAR-3 ovarian
SN12C renal = test system: SN12C renal
SF-268 CNS = test system: SF-268 CNS
UACC-62 melanoma = test system: UACC-62 melanoma
CCRF-CEM leukemia = test system: CCRF-CEM leukemia
MDA-MB-231 breast = test system: MDA-MB-231 breast
SK-MEL-5 melanoma = test system: SK-MEL-5 melanoma
SR leukemia = test system: SR leukemia
SNB-19 CNS = test system: SNB-19 CNS
HL-60(TB) leukemia = test system: HL-60(TB) leukemia
MALME-3M melanoma = test system: MALME-3M melanoma
A549 NSCLC = test system: A549 NSCLC
SNB-75 CNS = test system: SNB-75 CNS
SF-295 CNS = test system: SF-295 CNS
NCI-H226 lung = test system: NCI-H226 lung
KM12 colon = test system: KM12 colon
OVCAR-5 ovarian = test system: OVCAR-5 ovarian
UACC-257 melanoma = test system: UACC-257 melanoma
HS 578T breast = test system: HS 578T breast
MCF7 breast = test system: MCF7 breast
HOP-92 NSCLC = test system: HOP-92 NSCLC
BT-549 breast = test system: BT-549 breast
LOX IMVI melanoma = test system: LOX IMVI melanoma

CCn1c(C(=O)N(C2CC2)C2CC2)cc2c3c(ncn3C)c(Nc3cc(C)n(C)n3)nc21
> 100 µM: TGI (U251 CNS) | TGI (MOLT-4 leukemia) | TGI (HCT-15 colon) | TGI (COLO 205 colon) | TGI (SW-620 colon) | TGI (OVCAR-4 ovarian) | TGI (OVCAR-3 ovarian) | TGI (SN12C renal) | TGI (SF-268 CNS) | TGI (UACC-62 melanoma) | TGI (CCRF-CEM leukemia) | TGI (MDA-MB-231 breast) | TGI (SK-MEL-5 melanoma) | TGI (SR leukemia) | TGI (SNB-19 CNS) | TGI (HL-60(TB) leukemia) | TGI (MALME-3M melanoma) | TGI (A549 NSCLC) | TGI (SF-295 CNS) | TGI (NCI-H226 lung) | TGI (KM12 colon) | TGI (OVCAR-5 ovarian) | TGI (UACC-257 melanoma) | TGI (HS 578T breast) | TGI (MCF7 breast) | TGI (HOP-92 NSCLC) | TGI (BT-549 breast)
32.5 µM: TGI (SNB-75 CNS)
inactive: GI50 (U251 CNS) > 100 µM | GI50 (MOLT-4 leukemia) > 100 µM | GI50 (HCT-15 colon) > 100 µM | GI50 (COLO 205 colon) > 100 µM | GI50 (SW-620 colon) > 100 µM | GI50 (OVCAR-4 ovarian) > 100 µM | GI50 (OVCAR-3 ovarian) > 100 µM | GI50 (SN12C renal) 98.3 µM | GI50 (SF-268 CNS) > 100 µM | GI50 (UACC-62 melanoma) > 100 µM | GI50 (CCRF-CEM leukemia) > 100 µM | GI50 (MDA-MB-231 breast) 35.5 µM | GI50 (SK-MEL-5 melanoma) > 100 µM | GI50 (SR leukemia) 16.8 µM | GI50 (SNB-19 CNS) > 100 µM | GI50 (HL-60(TB) leukemia) > 100 µM | GI50 (MALME-3M melanoma) > 100 µM | GI50 (A549 NSCLC) > 100 µM | GI50 (SNB-75 CNS) 1.26 µM | GI50 (SF-295 CNS) > 100 µM | GI50 (NCI-H226 lung) > 100 µM | GI50 (KM12 colon) 0.506 µM | GI50 (OVCAR-5 ovarian) > 100 µM | GI50 (UACC-257 melanoma) > 100 µM | GI50 (HS 578T breast) 3.63 µM | GI50 (MCF7 breast) > 100 µM | GI50 (HOP-92 NSCLC) > 100 µM | GI50 (BT-549 breast) > 100 µM | GI50 (LOX IMVI melanoma) 59.2 µM

Source: PubChem BioAssay (NCI)
